# Test results from article PMC6270726 (Molecules, 2014).
# Values joined by “and” are separate entries in the source; they are usually repeats but may differ in a detail not shown here. Equal values may be shown once. Read-outs that look alike come from different tables or passages of the source.
# Tests used:
# [1] = target: T1, SaSDH (Staphylococcus aureus, UniProt Q6GGA5); experiment: SaSDH inhibition assays (single concentration and inhibition kinetics); format: biochemical; settings: for inhibition at 200 µM: inhibition of SaSDH activity, compound at 200 µM; for IC50: i0.5 at 400 μM of substrate, 400 μM, 50% inhibition concentration; for Pattern (inhibition mechanism): Cornish-Bowden plot
# T1 construct: 6His-tag (N); made in house; host or cells: E. coli BL21(DE3)pLysS
# T1 sequence (Q6GGA5 1-268): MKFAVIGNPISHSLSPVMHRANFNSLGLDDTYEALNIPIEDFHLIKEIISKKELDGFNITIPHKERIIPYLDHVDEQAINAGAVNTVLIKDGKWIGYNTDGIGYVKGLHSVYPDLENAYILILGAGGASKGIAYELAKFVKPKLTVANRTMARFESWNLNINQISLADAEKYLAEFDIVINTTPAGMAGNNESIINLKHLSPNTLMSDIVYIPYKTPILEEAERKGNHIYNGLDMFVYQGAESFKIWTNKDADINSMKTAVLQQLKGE
# Experimental: Once the model was built, a rigid body docking procedure for virtual screening with a library of small molecules was performed. Because the enzyme is absent in humans, we selected the substrate (SHK) binding site as the target for virtual screening (Figure 3A). From the one thousand small molecules studied, a database of 38,355 poses was generated. The one hundred molecules with the highest binding energies were selected, and the capacities of these molecules to inhibit SaSDH were assessed. Inhibition assays using a concentration of 200 µM of the latter molecules were performed.
# In order to study the type of inhibition of compounds on SaSDH, pharmacological and kinetic parameters (i0.5, Kic and Kiu) were determined at various concentrations of these compounds, using SHK and NADP^+ respectively, as substrates. In Figure 4, the plots of reciprocal rate multiplied by the substrate concentrations (S/v) versus inhibitor concentration in the presence of SHK and NADP^+ are shown. The intercept of the extrapolated line on the [i] axis, that corresponds to each compound concentration, is ‒i0.5. This provided a single and accurate way of estimating i0.5, which is important if it is to be used to calculate the inhibition constant.
# (§1) Enzyme activity was measured spectrophotometrically at 25 °C at 340 nm, following NADPH generation (ε = 6.19 × 10^3 M^−1 cm^−1). The reaction mixture contained buffer A plus 1 mM SHK, 1 mM NADP^+, and 50 ng of SaSDH.
# The data were fitted to equations for competitive, uncompetitive, non-competitive and mixed inhibition, respectively, using the kinetic module of SigmaPlot program v12.3. All experiments were repeated at least twice.
# The 50% inhibition concentrations (i0.5) of compounds against SaSDH were determined and analyzed by fitting to [Equation (2)]. The inhibition mechanism and inhibition constant (Kic and Kiu) were studied by fitting the inhibition data to [Equation (3)]: [drawing 12] (2) [drawing 13] (3)
# Kic is the inhibition constant derived from the intercepts, whereas Kiu is the constant derived from the slope of 1/i0.5 vs v/V plots.
# [2] = target: T1, SaSDH; experiment: SaSDH kinetic parameters for substrates; format: biochemical, methicillin-resistant S. aureus; settings: substrate of SaSDH; for Km: 25 °C, random bi-bi fit; for Vmax: saturating levels of both substrates; for Kd: read-out: Kia (dissociation constant)
# Experimental: Data were fitted to several models of bi-substrate reactions, all of which were analyzed using SigmaPlot Enzyme Kinetics Module v1.3. […] These were used to derive the turnover number (Kcat) and Kcat/Km.
# as §1
# The data were linearized by the double-reciprocal transformation of Lineweaver and Burk. […] The inversion of the data matrix allowed the determination of the dissociation constant for NADP^+.
# [3] = Kic, substrate shikimate, inhibitor binding to the substrate site
# [4] = Kiu, substrate NADP^+, inhibitor binding to enzyme-substrate complex
smiles,measurement,setting,value
O=C(O)c1ccc(CN2CCOCC2)cc1 [compound 306],inhibition at 200 µM,[1],31%
CCCCC#Cc1ccc(C(=O)O)o1 [compound 637],inhibition at 200 µM,[1],29%
CN(CCO)c1cc(C(F)(F)F)nc2ccccc12 [compound 626],inhibition at 200 µM,[1],49%
"O=C(O)C1=C[C@@H](O)[C@@H](O)[C@H](O)C1 [Shikimate, shikimate]",Km,[2],37.5 ± 3.7 µM
same,Vmax,[2],233.6 ± 1.5 µmol/min/mg
same,Vmax,[2]; listed as SHK,233 µmol/min/mg
same,Kd,[2]; listed as SHK,21.2 µM
same,Kd,[2],21.2 µM
NC(=O)c1ccc[n+]([C@@H]2O[C@H](COP(=O)([O-])OP(=O)(O)OC[C@H]3O[C@@H](n4cnc5c(N)ncnc54)[C@H](OP(=O)(O)O)[C@@H]3O)[C@@H](O)[C@H]2O)c1 [NADP^+],Kcat,[2],146 s⁻¹ and 146.16 s⁻¹
same,Km,[2],42.6 ± 9.9 µM
same,Vmax,[2],251 µmol/min/mg and 251.41 ± 7.2 µmol/min/mg
same,Kd,[2],21 µM
OCC1COc2ccccc2C1 (stereo not drawn) [compound 291],inhibition at 200 µM,[1],31%
"O=C1COc2cc(O)ccc21 [compound 894, 6-hydroxy-2,3-dihydrobenzo[b]furan-3-one]",Ki,"[1]; Kic, substrate NADP^+, inhibitor binding to the substrate site",901 µM
same,Ki,[1]; [3],58.3 µM
same,Ki,[1]; [4],5.2 µM
same,Ki,"[1]; Kiu, substrate shikimate, inhibitor binding to enzyme-substrate complex",1470 µM
same,IC50,[1]; substrate NADP^+,614 µM
same,IC50,[1]; substrate shikimate,143 µM
same,inhibition at 200 µM,[1],99%
same,Pattern (inhibition mechanism),[1]; with respect to NADP^+,Mixed-uncompetitive
same,Pattern (inhibition mechanism),[1]; with respect to shikimate,Mixed-competitive
CN(C)CCOc1ccccc1CO [compound 463],inhibition at 200 µM,[1],45%
"Cc1c(O)ccc2c1OC(C)(C)CC2=O [compound 766, 7-hydroxy-2,2,8-trimethyl-2,3-dihydro-4H-chromen-4-one]",Ki,[1]; [3],19.7 µM and 19.8 µM
same,Ki,[1]; [4],11.3 µM
same,IC50,[1]; substrate NADP^+,564 µM
same,IC50,[1]; substrate shikimate,343 µM
same,inhibition at 200 µM,[1],87%
same,Pattern (inhibition mechanism),[1]; with respect to NADP^+,Uncompetitive
same,Pattern (inhibition mechanism),[1]; with respect to shikimate,Competitive
O=C(O)c1csc(-c2ccc(C(F)(F)F)cc2)n1 [compound 692],inhibition at 200 µM,[1],31%
COC(=O)c1sc2ccccc2c1O [compound 62],inhibition at 200 µM,[1],33%
"O=C(O)c1ccc(-c2cccs2)s1 [compound 238, 2,2'-bithiophene-5-carboxylic acid]",Ki,[1]; [3],9.53 µM
same,Ki,[1]; [4],48.3 µM
same,IC50,[1]; substrate NADP^+,108 µM
same,IC50,[1]; substrate shikimate,123 µM
same,inhibition at 200 µM,[1],87%
same,Pattern (inhibition mechanism),[1]; with respect to NADP^+,Uncompetitive
same,Pattern (inhibition mechanism),[1]; with respect to shikimate,Competitive
